How the values were obtained:
[1] = molecular target: T1, COX-2 (Homo sapiens, UniProt P35354); test: Human whole blood assay, COX-2 (LPS-induced PGE2 production); type: cell-based; set-up: endogenous in cells; host or cells: fresh heparinized human whole blood from volunteers, incubated with LPS; conditions: LPS-induced PGE2, 24 hours at 37° C., read-out: COX-2 (IC50 μM) HWB
T1 sequence (P35354 18-604): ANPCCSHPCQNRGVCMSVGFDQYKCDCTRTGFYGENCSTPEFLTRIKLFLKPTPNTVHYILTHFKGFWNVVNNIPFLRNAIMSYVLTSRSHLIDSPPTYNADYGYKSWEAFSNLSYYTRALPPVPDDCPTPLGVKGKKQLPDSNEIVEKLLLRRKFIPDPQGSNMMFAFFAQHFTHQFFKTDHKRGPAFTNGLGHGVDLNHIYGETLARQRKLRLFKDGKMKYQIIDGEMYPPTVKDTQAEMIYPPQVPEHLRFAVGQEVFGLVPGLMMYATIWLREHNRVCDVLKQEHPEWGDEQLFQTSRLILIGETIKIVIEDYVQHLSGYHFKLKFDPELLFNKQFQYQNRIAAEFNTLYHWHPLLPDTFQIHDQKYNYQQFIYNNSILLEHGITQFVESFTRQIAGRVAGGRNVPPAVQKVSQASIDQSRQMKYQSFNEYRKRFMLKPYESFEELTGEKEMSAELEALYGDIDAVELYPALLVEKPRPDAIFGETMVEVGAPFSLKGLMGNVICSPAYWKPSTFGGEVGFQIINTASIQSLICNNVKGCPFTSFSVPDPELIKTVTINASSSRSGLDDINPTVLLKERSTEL
Protocol: Human whole blood provides a protein and cell-rich milieu appropriate for the study of biochemical efficacy of anti-inflammatory compounds such as selective COX-2 inhibitors. […] This is consistent with the observation that COX-2 inhibitors have no effect on PGE2 production in normal blood. These inhibitors are active only after incubation of human whole blood with LPS, which induces COX-2. This assay can be used to evaluate the inhibitory effect of selective COX-2 inhibitors on PGE2 production. As well, platelets in whole blood contain a large amount of the COX-1 enzyme. Immediately following blood clotting, platelets are activated through a thrombin-mediated mechanism. This reaction results in the production of thromboxane B2 (TxB2) via activation of COX-1. Thus, the effect of test compounds on TxB2 levels following blood clotting can be examined and used as an index for COX-1 activity. Therefore, the degree of selectivity by the test compound can be determined by measuring the levels of PGE2 after LPS induction (COX-2) and TxB2 following blood clotting (COX-1) in the same assay.
A. COX-2 (LPS-induced PGE2 production)
Fresh blood is collected in heparinized tubes by venipuncture from both male and female volunteers. The subjects have no apparent inflammatory conditions and have not taken any NSAIDs for at least 7 days prior to blood collection. Plasma is immediately obtained from a 2 mL blood aliquot to use as blank (basal levels of PGE2). The remaining blood is incubated with LPS (100 μg/ml final concentration, Sigma Chem, #L-2630 from E. coli; diluted in 0.1% BSA (Phosphate buffered saline) for 5 minutes at room temperature. Five hundred μL aliquots of blood are incubated with either 2 μL of vehicle (DMSO) or 2 μL of a test compound at final concentrations varying from 10 nM to 30 μM for 24 hours at 37° C. At the end of the incubation, the blood is centrifuged at 12,000×g for 5 minutes to obtain plasma. A 100 μL aliquot of plasma is mixed with 400 μL of methanol for protein precipitation. The supernatant is obtained and is assayed for PGE2 using a radioimmunoassay kit (Amersham, RPA#530) after conversion of PGE2 to its methyl oximate derivative according to the manufacturer's procedure.

[2] = molecular target: COX-1 (Homo sapiens, UniProt P23219); test: Assay of COX-1 activity from U937 cell microsomes; type: biochemical; set-up: endogenous in cells; host or cells: U937 cells, 100,000 x g microsomal pellet; conditions: PGE2, read-out: COX-1 (IC50 μM) U-937
Sequence of COX-1 (P23219 24-599): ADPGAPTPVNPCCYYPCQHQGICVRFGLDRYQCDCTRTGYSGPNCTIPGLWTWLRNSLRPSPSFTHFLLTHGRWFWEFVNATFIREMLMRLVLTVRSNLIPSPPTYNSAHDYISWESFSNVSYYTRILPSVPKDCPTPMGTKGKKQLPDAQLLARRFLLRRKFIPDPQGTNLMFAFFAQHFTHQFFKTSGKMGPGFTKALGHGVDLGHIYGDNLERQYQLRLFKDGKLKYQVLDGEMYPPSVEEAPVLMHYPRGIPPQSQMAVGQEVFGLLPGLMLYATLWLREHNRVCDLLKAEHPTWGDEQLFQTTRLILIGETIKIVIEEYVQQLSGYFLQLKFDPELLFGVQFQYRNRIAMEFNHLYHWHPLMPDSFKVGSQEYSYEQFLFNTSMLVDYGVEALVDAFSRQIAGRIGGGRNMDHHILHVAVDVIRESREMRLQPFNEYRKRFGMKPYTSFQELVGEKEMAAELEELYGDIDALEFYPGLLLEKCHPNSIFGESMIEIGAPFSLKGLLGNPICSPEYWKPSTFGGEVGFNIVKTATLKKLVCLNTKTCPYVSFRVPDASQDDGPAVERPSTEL
Protocol: Assay of COX-1 Activity from U937 cell microsomes
U937 cells are pelleted by centrifugation at 500×g for 5 min and washed once with phosphate-buffered saline and repelleted. Cells are resuspended in homogenization buffer consisting of 0.1M Tris-HCl, pH 7.4, 10 mM EDTA, 2 μg/ml leupeptin, 2 μg/ml soybean trypsin inhibitor, 2 μg/ml aprotinin and 1 mM phenyl methyl sulfonyl fluoride. The cell suspension is sonicated 4 times for 10 sec and is centrifuged at 10,000×g for 10 min at 4° C. The supernatant is centrifuged at 100,000×g for 1 hr at 4° C. The 100,000×g microsomal pellet is resuspended in 0.1M Tris-HCl, pH 7.4, 10 mM EDTA to approximately 7 mg protein/ml and stored at −80° C.
Microsomal preparations are thawed immediately prior to use, subjected to a brief sonication, and then diluted to a protein concentration of 125 μg/ml in 0.1 M Tris-HCl buffer, pH 7.4 containing 10 mM EDTA, 0.5 mM phenol, 1 mM reduced glutathione and 1 μM hematin. Assays are performed in duplicate in a final volume of 250 μl. Initially, 5 μl of DMSO vehicle or drug in DMSO are added to 20 μl of 0.1M Tris-HCl buffer, pH 7.4 containing 10 mM EDTA in wells of a 96-deepwell polypropylene titre plate. 200 μl of the microsomal preparation are then added and pre-incubated for 15 min at room temperature before addition of 25 μl of […] arachidonic acid in 0.1M Tris-HCl and 10 mM EDTA, pH 7.4. Samples are incubated for 40 min at room temperature and the reaction is stopped by the addition of 25 μl of 1N HCl. Samples are neutralized with 25 μl of 1N NaOH prior to quantitation of PGE2 content by radioimmunoassay (Dupont-NEN or Amersham assay kits). Cyclooxygenase activity is defined as the difference between PGE2 levels in samples incubated in the presence of arachidonic acid and ethanol vehicle.
Compounds of the present invention are inhibitors of cyclooxygenase-2 and are thereby useful in the treatment of cyclooxygenase-2 mediated diseases as enumerated above. The activities of the compounds against cyclooxygenase may be seen in the representative results shown below. In the assay, inhibition is determined by measuring the amount of prostaglandin E2 (PGE2) synthesized in the presence of arachidonic acid, cyclooxygenase-1 or cyclooxygenase-2 and a putative inhibitor. The IC50 values represent the concentration of putative inhibitor required to return PGE2 synthesis to 50% of that obtained as compared to the uninhibited control.

Row | Compound | IC50 [1] [µM] | IC50 [2] [µM]
1 | Cc1cc(-c2ccc(S(C)(=O)=O)cc2)c(-c2cccc(F)c2)c(=O)o1 [Example 3, 3-(3-Fluorophenyl)-6-methyl-4-(4-methylsulfonyl)phenyl-pyran-2-one] | < 0.4 | 3 to 10
2 | Cc1cc(-c2ccc(S(C)(=O)=O)cc2)c(SC(C)C)c(=O)o1 [Example 10, 3-Isopropylthio-6-methyl-4-(4-(methylsulfonyl)phenyl)-pyran-2-one] | 1.3 | > 10
3 | Cc1cc(-c2ccc(S(C)(=O)=O)cc2)c(CCC(C)(C)O)c(=O)o1 [Example 14, 3-(3-Hydroxy-3-methylbutyl)-6-methyl-4-(4-methylsulfonyl)phenyl-pyran-2-one] | 1.2 | > 10
4 | CS(=O)(=O)c1ccc(-c2ccoc(=O)c2-c2ccccc2)cc1 [Example 1, 4-(4-Methylsulfonyl)phenyl-3-phenyl-pyran-2-one] | 2.6 | > 10
5 | CS(=O)(=O)c1ccc(-c2cc(C(F)(F)F)oc(=O)c2Sc2ccccc2)cc1 [Example 11, 4-(4-(Methylsulfonyl)phenyl)-3-phenylthio-6-trifluoromethyl-pyran-2-one] | 0.3 to 1 | 14
6 | CS(=O)(=O)c1ccc(-c2cc(CF)oc(=O)c2-c2ccccc2)cc1 [Example 6, 6-Fluoromethyl-4-(4-methylsulfonyl)phenyl-3-phenyl-pyran-2-one] | 3.1 | ~1
7 | CS(=O)(=O)c1ccc(-c2cc(C(F)F)oc(=O)c2-c2ccccc2)cc1 [Example 5, 6-Difluoromethyl-4-(4-methylsulfonyl)phenyl-3-phenyl-pyran-2-one] | 1.8 | 0.3 to 1
8 | CC(C)Sc1c(-c2ccc(S(C)(=O)=O)cc2)cc(C(F)(F)F)oc1=O [Example 12, 3-Isopropylthio-4-(4-(methylsulfonyl)phenyl)-6-trifluoromethyl-pyran-2-one] | 1 to 3 | >33
9 | Cc1cc(-c2ccc(S(C)(=O)=O)cc2)c(-c2ccc(F)cc2)c(=O)o1 [Example 2, 3-(4-Fluorophenyl)-6-methyl-4-(4-methylsulfonyl)phenyl-pyran-2-one] | < 0.4 | 0.3 to 1
10 | Cc1cc(-c2ccc(S(C)(=O)=O)cc2)c(Sc2ccccc2)c(=O)o1 [Example 7, 6-Methyl-4-(4-(methylsulfonyl)phenyl)-3-phenylthio-pyran-2-one] | 0.5 | 1 to 3
11 | Cc1cc(-c2ccc(S(C)(=O)=O)cc2)c(-c2cccnc2)c(=O)o1 [Example 9] | 0.6 | 0.3 to 1
12 | Cc1cc(-c2ccc(S(C)(=O)=O)cc2)c(Oc2ccccc2)c(=O)o1 [Example 8, 6-Methyl-4-(4-(methylsulfonyl)phenyl)-3-phenoxy-pyran-2-one] | < 0.4 | 1 to 3
13 | Cc1cc(-c2ccc(S(C)(=O)=O)cc2)c(-c2ccccc2)c(=O)o1 [Example 4, 6-Methyl-4-(4-methylsulfonyl)phenyl-3-phenyl-pyran-2-one] | < 0.4 | 1

— US6465509B2, “Pyrones as inhibitors of cyclooxygenase-2” (Merck Frosst Canada & Co., priority 2000, dated 2002)
